In patent US20170143738A1, “SOLID FORMULATION AND METHOD FOR STABILIZING THE SAME” (EA Pharma Co., Ltd., priority 2014, published 2017):

How the values were obtained:
[1] = Storage stability of Elobixibat alone or mixed 1:1 with an additive: total related substance(s) by HPLC; assay type: physicochemical; details: stored in an open state for 2 weeks, 60° C. and 75% relative humidity
Experimental: (§1) 1,1-dioxo-3,3-dibutyl-5-phenyl-7-methylthio-8-(N—{(R)-1′-phenyl-1′-[N′-(carboxymethyl)carbamoyl]methyl}carbamoylmethoxy)-2,3,4,5-tetrahydro-1,5-benzothiazepine (Elobixibat) and an additive shown in Table 1 were mixed in a weight ratio of 1:1. Thereby, the mixtures according to Reference Examples 2 to 10 were obtained. The mixture of each of Reference Examples 2 to 10, and only Elobixibat as Reference Example 1 was independently stored in an open state for 2 weeks under the conditions of 60° C. and 75% relative humidity. The material of Reference Example 1 and the mixtures according to Reference Examples 2 to 10 after storage were independently dispersed and dissolved in acetonitrile aqueous solution. The total amount of related substance(s) in the aforementioned aqueous solution was calculated as the sum of the areas in percentage for Elobixibat by the measurement in accordance with an HPLC method. In addition, the presence or absence of coloration of the mixtures of Reference Examples 1 to 7 after storage was visually observed. “%” shown in Table 1 indicates percent by weight.

[2] = Visual observation of coloration of Elobixibat and Elobixibat/additive mixtures after storage; assay type: physicochemical; details: 60° C. and 75% relative humidity, visually observed
Experimental: as §1

CCCCC1(CCCC)CN(c2ccccc2)c2cc(SC)c(OCC(=O)N[C@@H](C(=O)NCC(=O)O)c3ccccc3)cc2S(=O)(=O)C1 [Reference Example 1, 1,1-dioxo-3,3-dibutyl-5-phenyl-7-methylthio-8-(N—{(R)-1′-phenyl-1′-[N′-(carboxymethyl)carbamoyl]methyl}carbamoylmethoxy)-2,3,4,5-tetrahydro-1,5-benzothiazepine]
Increase of the amount of related substance(s) after storage (in words) ([1]; summary of Table 1): a great increase of the related substance(s) was not observed
Total amount of related substance(s) after storage ([1]; weight ratio 1:1 with additive, sum of HPLC areas in percentage for Elobixibat): 0.6%
Coloration: Before storage → after storage ([2]; colour before and after 2 weeks open storage): White → white
Coloration after storage ([2]; stored in an open state for 2 weeks): Not observed
